Experimental data: patent US12516052B2, “Methyltransferase 5 (PRMT5) inhibitors and methods of treatment” (THE TRUSTEES OF INDIANA UNIVERSITY, priority 2016, dated 2026)
“Also recorded” adds a separate entry of the source.

What was measured:
[1] = test system: PDAC cells (PANC1, MiaPaCa2 and AsPC1); assay: MTT cell viability assay in PDAC cell lines; type: cell-based
Protocol: The PRMT5 inhibitory activity of the compounds from the screen was confirmed using both AlphaLISA and an MTT [(3-(4,5-dimethylthiazolyl-2)-2,5-diphenyltetrazolium bromide)] assay (PerkinElmer, Waltham, MA). For the MTT assay, cells were seeded at 90% confluence in 96-well plates and titrated with different dosages of compound (IIa) for 4 days. Media was then removed and 100 μl of MTT (Sigma-Aldrich, St. Louis, MO) was added per well. Cells were incubated for 2 hours at 37° C. before adding 100 μl of DMSO to each well and quantified with the SYNERGY™ H1 Multi-Mode Reader (BioTek Instruments Inc., Winooski, VT). The expression of PRMT5 was examined in pancreatic ductal adenocarcinoma cells at multiple stages of disease progression and in multiple colorectal cancer cell lines. Pancreatic control (HPNE) and cancer cell lines (PANC1, MiaPaCa2 and AsPC1) were grown in Dulbecco's Modified Eagle Medium (DMEM) (GE Healthcare, Little Chalfont, UK), supplemented with 1% of penicillin/streptomycin, 10% fetal bovine serum (FBS). Colon control (FHC) and cancer (HT29, HCT116, and DLD1) cell lines were maintained in RPMI 1640 Medium (Roswell Park Memorial Institute Medium) (GE Healthcare, Little Chalfont, UK), containing 1% penicillin/streptomycin and 10% FBS, while FHC cells were cultured under the same condition with further addition of 25 mM HEPES (4-(2-hydroxyethyl)-1-piperazineethanesulfonic acid), 10 ng/ml cholera toxin, 0.005 mg/ml insulin, 0.005 mg/ml transferring, and 100 ng/ml hydrocortisone. All cell lines were cultured at 37° C. under 5% CO2. The PDAC and CRC cell lines described above were treated with increasing concentrations of compound (IIa) or the commercially available PRMT5 inhibitor EPZ015666 [drawing 12] and quantified for cell viability using the MTT assay described above. […] A soft agar experiment was also performed to determine the effect of compound (IIa) on colony growth.

[2] = test system: other protein arginine methyltransferase family members; assay: HotSpot radioisotope-based methyltransferase platform (Reaction Biology Corp); type: biochemical; conditions: did not inhibit or at least this fold higher IC50
[3] = test system: methamphetamine-treated rats; assay: Striatal neurotransmitter levels (HPLC) in methamphetamine-treated rats; type: in vivo; conditions: methamphetamine 7.5 mg/kg ×4, then 4 injections of 1 mg/kg at 12 hour intervals, vs vehicle
Protocol: Rats were given methamphetamine treatment 7.5 mg/kg, 4 injections spaced out at 2 hours each. Then, 4 injections of 1 mg/kg of compound (IIa) or vehicle control were given at 12 hours, 24 hours, 36 hours, and 48 hours after the last methamphetamine injection. Rats were sacrificed 24 hours after the last injection and neurotransmitter levels were quantified in the striatum using high performance liquid chromatography (HPLC).

HT29 cells = assay: Anchorage-independent (soft agar) growth assay in HT29 cells; type: cell-based; conditions: increasing concentrations
Protocol: The ability to form colonies suspended in soft agar is a characteristic of cancer cells. By using the stable cell lines established above, an anchorage-independent assay in soft agar was conducted. 2.5% and 1.25% agar were used to prepare the bottom and top layers of the soft agar, respectively. The bottom agar was added to each well of a 6-well plate. 2×10^5 cells for each cell line were then added and mixed into top agar solution and layered on top of the bottom layer. The plates were incubated for 10-20 days at 37° C. and 5% CO2. Images were captured using a Canon EOS Rebel T3i Digital SLR camera (Canon, Woodridge, IL) and quantification of colony size and number was performed using ImageJ. […] A soft agar experiment was also performed to determine the effect of compound (IIa) on colony growth.

[4] = Body weight of xenografted NSG mice during treatment; type: in vivo; conditions: 20 mg/kg intraperitoneally 3×/week, over the course of treatment
Protocol: NSG (NOD scid gamma) mice were obtained from the In Vivo Therapeutics Core at Indiana University School of Medicine. After acclimation for 7 days, NSG mice (6-8 weeks old) were xenografted with mycoplasma-free PANC1 or HT29 cells subcutaneously (1×10^7 PANC1 or 3×10^6 HT29 cells used per mouse in 0.2 ml of a 1:1 mix of phosphate-buffered saline and MATRIGEL™) (BD Biosciences, San Jose, CA). Mice were randomized when tumor volumes reached about 100 mm^3. Mice were treated with either vehicle control or 20 mg/kg of compound (Ia) (drug stock dissolved in 1:1 CREMOPHOR™:ethanol solution) intraperitoneally 3 times per week. Tumor volumes and body weights were measured twice a week. The study was performed in accordance with the guidelines and standards of the Institutional Animal Care and Use Committee (IACUC). […] NSG (NOD scid gamma) mice were obtained from the In Vivo Therapeutics Core at Indiana University School of Medicine. After acclimation for 7 days, NSG mice (6-8 weeks old) were xenografted with mycoplasma-free PANC1 or HT29 cells subcutaneously (1×10^7 PANC1 or 3×10^6 HT29 cells used per mouse in 0.2 ml of a 1:1 mix of phosphate-buffered saline and MATRIGEL™) (BD Biosciences, San Jose, CA). Mice were randomized when tumor volumes reached about 100 mm^3. Mice were treated with either vehicle control or 20 mg/kg of compound (IIa) (drug stock dissolved in 1:1 CREMOPHOR™:ethanol solution) intraperitoneally 3 times per week. Tumor volumes and body weights were measured twice a week. The study was performed in accordance with the guidelines and standards of the Institutional Animal Care and Use Committee (IACUC).

[5] = test system: NF-κB target genes (TNFα and IL8); assay: qPCR of NF-κB target genes in HT29 cells; type: cell-based; conditions: treated vs untreated
Protocol: Furthermore, experiments were performed to determine if PRMT5 inhibition by compound (IIa) could decrease the expression of NF-κB target genes (e.g., pro-inflammatory cytokines TNFα and IL-8). Briefly, HT29 and PANC1 cells were treated with or without compound (IIa), and target gene expression was analyzed by quantitative PCR.

PANC1 cells = assay: PANC1 subcutaneous xenograft tumor efficacy study in NSG mice; type: in vivo; conditions: 20 mg/kg intraperitoneally 3×/week, vs vehicle control, n=4
Protocol: NSG (NOD scid gamma) mice were obtained from the In Vivo Therapeutics Core at Indiana University School of Medicine. After acclimation for 7 days, NSG mice (6-8 weeks old) were xenografted with mycoplasma-free PANC1 or HT29 cells subcutaneously (1×10^7 PANC1 or 3×10^6 HT29 cells used per mouse in 0.2 ml of a 1:1 mix of phosphate-buffered saline and MATRIGEL™) (BD Biosciences, San Jose, CA). Mice were randomized when tumor volumes reached about 100 mm^3. Mice were treated with either vehicle control or 20 mg/kg of compound (Ia) (drug stock dissolved in 1:1 CREMOPHOR™:ethanol solution) intraperitoneally 3 times per week. Tumor volumes and body weights were measured twice a week. The study was performed in accordance with the guidelines and standards of the Institutional Animal Care and Use Committee (IACUC). […] NSG (NOD scid gamma) mice were obtained from the In Vivo Therapeutics Core at Indiana University School of Medicine. After acclimation for 7 days, NSG mice (6-8 weeks old) were xenografted with mycoplasma-free PANC1 or HT29 cells subcutaneously (1×10^7 PANC1 or 3×10^6 HT29 cells used per mouse in 0.2 ml of a 1:1 mix of phosphate-buffered saline and MATRIGEL™) (BD Biosciences, San Jose, CA). Mice were randomized when tumor volumes reached about 100 mm^3. […] Tumor volumes and body weights were measured twice a week. […]

Cc1ccc(Nc2nc(NCCN(C)C)nc3c2cnn3-c2ccccc2)cc1C [compound (IIa)]
cell viability in PDAC cells (PANC1, MiaPaCa2, AsPC1), MTT ([1]; increasing concentrations): decreased significantly | IC50 ([1]; range over PANC1, MiaPaCa2 and AsPC1): 2 to 4 µM | fold higher IC50 against other protein arginine methyltransferase family members [2]: ≥ 10 fold | dopamine levels in the striatum [3]: increase | serotonin levels in the striatum [3]: increase | anchorage-independent growth / colony formation, HT29 (CRC) (HT29 cells): strongly inhibited colony formation; also recorded: significant decrease | body weight, HT29 model [4]: did not visibly affect the body weight; also recorded: no significant changes in body weight | body weight, PANC1 model [4]: did not visibly affect the body weight; also recorded: no significant changes in body weight | IL8 expression (qPCR), HT29 [5]: significant decrease; also recorded: dramatically decreased | TNFα expression (qPCR), HT29 [5]: significant decrease; also recorded: dramatically decreased | tumor growth (tumor volume), PANC1 xenograft (PANC1 cells): significant tumor inhibition effect; also recorded: inhibition of tumor growth
